Where a name gives a salt, the structure may show the parent alone.
Columns and labels:
[1] = oral dosing in human patients; cited from earlier work
[2] = Solubility in ethanol water mixture; type: physicochemical; conditions: both crystal forms

Row | Compound | Side effects of oral dosing [1] | Solubility [2]
1 | CN1C[C@H]2c3ccccc3Oc3ccc(Cl)cc3[C@@H]2C1 (relative stereo) [Asenapine, trans-5-chloro-2-methyl-2,3,3a, 12b-tetrahydro-1 H-dibenz[2,3:6,7]oxepino-[4,5-c]pyrrole] | serious cardiotoxic side effects including postural hypotension | –
2 | CN1CC2c3ccccc3Oc3ccc(Cl)cc3C2C1 (centres unmarked) [Asenapine maleate] | – | good solubility

Reference: patent US10085971B2, “Pharmaceutical solution of asenapine for sublingual or buccal use” (Navinta III Inc, priority 2016, dated 2018)
